Reference: patent US7951802B2, “Use of 7-azaindoles in the inhibition of c-Jun N-terminal kinase” (Eisai R&D Management Co., Ltd., priority 2007, dated 2011)
pIC50: −log10 of the molar value.

Target: JNK3 (Homo sapiens, UniProt P53779)
Assay: JNK3 SPA assay (phosphorylation of GST-c-Jun)
Type: biochemical
Conditions: 3.33 μM ATP, GST-c-Jun substrate, read-out: IC50 against JNK3
Description: JNK1, JNK2, JNK3—SPA Assay
JNK1, JNK2, JNK3—SPA Assay • 1. Compound is dissolved in DMSO to a convenient concentration and this is diluted in 10% DMSO to a five times concentrate of the desired starting concentration (frequently 1:100). • 2. 10 μl of 500 mM EDTA is added to alternative wells of the Opti-plate row, which will receive kinase reaction plus DMSO. This creates the negative control. • 3. For the JNK2 and JNK3 assay, compounds are prepared in six 2-fold dilutions with water and each concentration is tested in duplicate. For the JNK1 assay compounds are prepared in four 5-fold dilutions with water which are tested in triplicate. Controls are treated identically. • 4. 20 μl per well of each compound concentration is transferred to an Opti-plate, in duplicate. • 5. 30 μl (JNK2/3 SPA) or 50 μl (JNK1 SPA) of substrate solution (25 mM HEPES pH 7.5, 10 mM magnesium acetate with 3.33 μM ATP (JNK2/3) or 2 μM ATP (JNK1), approximately 7.5 kBq [γ-^33P] ATP, GST-c-Jun, in water) is added to each well. • 6. 50 μl (JNK2/3 SPA) or 30 μl (JNK1 SPA) of kinase solution (JNK in 25 mM HEPES pH 7.5, 10 mM Mg Acetate) is added to each well.
• 7. The plate is incubated for 30 minutes at room temperature. • 8. 100 μl of bead/stop solution is added to each well (5 mg/ml glutathione-PVT-SPA beads, 40 mM ATP in PBS). • 9. Plates are sealed and incubated for 30 minutes at room temperature, centrifuged for 10 minutes at 2500 g and counted. • 10. The IC50 values are calculated as the concentration of the compound being tested at which the phosphorylation of c-Jun is decreased to 50% of the control value.

Chain of JNK3 (P53779 whole entry, species assumed): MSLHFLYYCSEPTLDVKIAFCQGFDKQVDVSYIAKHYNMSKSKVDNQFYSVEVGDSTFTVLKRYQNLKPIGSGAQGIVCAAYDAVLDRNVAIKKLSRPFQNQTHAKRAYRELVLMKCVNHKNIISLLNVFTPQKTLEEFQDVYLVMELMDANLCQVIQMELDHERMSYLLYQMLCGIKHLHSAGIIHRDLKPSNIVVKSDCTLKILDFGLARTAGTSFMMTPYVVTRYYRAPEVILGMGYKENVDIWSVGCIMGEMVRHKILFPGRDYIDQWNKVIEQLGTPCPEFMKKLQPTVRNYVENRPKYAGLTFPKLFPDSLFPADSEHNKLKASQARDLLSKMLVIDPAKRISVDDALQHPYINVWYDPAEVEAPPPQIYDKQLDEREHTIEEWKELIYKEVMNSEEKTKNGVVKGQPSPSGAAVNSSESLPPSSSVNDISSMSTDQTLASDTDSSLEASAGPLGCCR

Q: With `CN1CCC(c2csc(-c3c[nH]c4ncc([C@H]5CC[C@@H](N6CCOCC6)CC5)cc34)n2)CC1` [Compound I-79, 4-((1s,4s)-4-(3-(4-(1-methylpiperidin-4-yl)thiazol-2-yl)-1H-pyrrolo[2,3-b]pyridin-5-yl)cyclohexyl)morpholine] as the compound, how does the pIC50 read?
A: 6.51

Q: `FC(F)(F)c1csc(-c2c[nH]c3ncc([C@H]4CC[C@@H](N5CCCC5)CC4)cc23)n1` [Compound I-85, 2-(5-((1s,4s)-4-(pyrrolidin-1-yl)cyclohexyl)-1H-pyrrolo[2,3-b]pyridin-3-yl)-4-(trifluoromethyl)thiazole] was tested. Which pIC50 did it give?
A: 5.74

Q: How did the pIC50 turn out when `O=C(c1nc(-c2c[nH]c3ncc([C@H]4CC[C@H](N5CCOCC5)CC4)cc23)cs1)N1CCCCC1` [Compound I-33, (4-(5-((1r,4r)-4-morpholinocyclohexyl)-1H-pyrrolo[2,3-b]pyridin-3-yl)thiazol-2-yl)(piperidin-1-yl)methanone] was run?
A: 6.70

Q: How did the pIC50 turn out when `CC1CCC(c2cnc3[nH]cc(-c4csc(C(=O)N5CCN(C)CC5)n4)c3c2)CC1` (centres unmarked) [Compound I-22, {4-[5-(4-Methyl-cyclohexyl)-1H-pyrrolo[2,3-b]pyridin-3-yl]-thiazol-2-yl}-(4-methyl-piperazin-1-yl)-methanone] was run?
A: 7.80

Q: `c1ncc(-c2c[nH]c3ncc(C4CCCCC4)cc23)s1` [Compound I-48, 5-(5-cyclohexyl-1H-pyrrolo[2,3-b]pyridin-3-yl)thiazole] was tested. Which pIC50 did it give?
A: 6.24

Q: `CN1CCC(c2nc(-c3c[nH]c4ncc(C5=CCC(N6CCCOCC6)CC5)cc34)cs2)CC1` (centres unmarked) [Compound I-101, 4-(4-(3-(2-(1-methylpiperidin-4-yl)thiazol-4-yl)-1H-pyrrolo[2,3-b]pyridin-5-yl)cyclohex-3-enyl)-1,4-oxazepane] was tested. Which pIC50 did it give?
A: 6.44

Q: How did the pIC50 turn out when `C1=C(c2cnc3[nH]cc(-c4nccs4)c3c2)CCCC1` [Compound I-24, 2-(5-cyclohexenyl-1H-pyrrolo[2,3-b]pyridin-3-yl)thiazole] was run?
A: 6.64

Q: How did the pIC50 turn out when `CN1CCC(c2nc(-c3c[nH]c4ncc([C@H]5CC[C@H](N6CCN(C)CC6)CC5)cc34)cs2)CC1` [Compound I-96, 4-(5-((1r,4r)-4-(4-methylpiperazin-1-yl)cyclohexyl)-1H-pyrrolo[2,3-b]pyridin-3-yl)-2-(1-methylpiperidin-4-yl)thiazole] was run?
A: 6.64

Q: How did the pIC50 turn out when `Cc1csc(-c2c[nH]c3ncc(C4CCCCC4)cc23)n1` [Compound I-51, 2-(5-cyclohexyl-1H-pyrrolo[2,3-b]pyridin-3-yl)-4-methylthiazole] was run?
A: 6.03

Q: How did the pIC50 turn out when `O=C(c1nc(-c2c[nH]c3ncc([C@H]4CC[C@@H](N5CCOCC5)CC4)cc23)cs1)N1CCOCC1` [Compound I-31, morpholino(4-(5-((1s,4s)-4-morpholinocyclohexyl)-1H-pyrrolo[2,3-b]pyridin-3-yl)thiazol-2-yl)methanone] was run?
A: 5.88

Q: `c1csc(-c2c[nH]c3ncc([C@H]4CC[C@@H](N5CCOCC5)CC4)cc23)n1` [Compound I-90, 4-((1s,4s)-4-(3-(thiazol-2-yl)-1H-pyrrolo[2,3-b]pyridin-5-yl)cyclohexyl)morpholine] was tested. Which pIC50 did it give?
A: 5.88

Q: With `FC(F)(F)c1csc(-c2c[nH]c3ncc([C@H]4CC[C@H](N5CCOCC5)CC4)cc23)n1` [Compound I-69, 4-((1r,4r)-4-(3-(4-(trifluoromethyl)thiazol-2-yl)-1H-pyrrolo[2,3-b]pyridin-5-yl)cyclohexyl)morpholine] as the compound, how does the pIC50 read?
A: 6.35

Q: `CN1CCC(c2nc(-c3c[nH]c4ncc(C5=CCCC5)cc34)cs2)CC1` [Compound I-1, 5-Cyclopent-1-enyl-3-[2-(1-methyl-piperidin-4-yl)-thiazol-4-yl]-1H-pyrrolo[2,3-b]pyridine] was tested. Which pIC50 did it give?
A: 6.36

Q: How did the pIC50 turn out when `CC1CCC(c2cnc3[nH]cc(-c4csc(C(=O)N5CCCCC5)n4)c3c2)CC1` (centres unmarked) [Compound I-20, {4-[5-(4-Methyl-cyclohexyl)-1H-pyrrolo[2,3-b]pyridin-3-yl]-thiazol-2-yl}-piperidin-1-yl-methanone] was run?
A: 6.86

Q: `CN1CCC(c2nc(-c3c[nH]c4ncc([C@H]5CC[C@H](N6CCOCC6)CC5)cc34)cs2)CC1` [Compound I-94, 4-((1r,4r)-4-(3-(2-(1-methylpiperidin-4-yl)thiazol-4-yl)-1H-pyrrolo[2,3-b]pyridin-5-yl)cyclohexyl)morpholine] was tested. Which pIC50 did it give?
A: 6.16

Q: `CN1CCC(c2nc(-c3c[nH]c4ncc(C5=CCC(N6CCOCC6)CC5)cc34)cs2)CC1` (centres unmarked) [Compound I-100, 4-(4-(3-(2-(1-methylpiperidin-4-yl)thiazol-4-yl)-1H-pyrrolo[2,3-b]pyridin-5-yl)cyclohex-3-enyl)morpholine] was tested. Which pIC50 did it give?
A: 6.35

Q: With `CN1CCC(c2csc(-c3c[nH]c4ncc([C@H]5CC[C@H](N6CCOCC6)CC5)cc34)n2)CC1` [Compound I-78, 4-((1r,4r)-4-(3-(4-(1-methylpiperidin-4-yl)thiazol-2-yl)-1H-pyrrolo[2,3-b]pyridin-5-yl)cyclohexyl)morpholine] as the compound, how does the pIC50 read?
A: 6.53

Q: How did the pIC50 turn out when `CC1CCC(c2cnc3[nH]cc(-c4csc(C(=O)N(C)C)n4)c3c2)CC1` (centres unmarked) [Compound I-19, 4-[5-(4-Methyl-cyclohexyl)-1H-pyrrolo[2,3-b]pyridin-3-yl]-thiazole-2-carboxylic acid dimethylamide] was run?
A: 6.93

Q: `O=C(c1nc(-c2c[nH]c3ncc([C@H]4CC[C@@H](N5CCOCC5)CC4)cc23)cs1)N1CCCCC1` [Compound I-30, (4-(5-((1r,4r)-4-morpholinocyclohexyl)-1H-pyrrolo[2,3-b]pyridin-3-yl)thiazol-2-yl)(piperidin-1-yl)methanone] was tested. Which pIC50 did it give?
A: 6.64

Q: How did the pIC50 turn out when `CCC1CC=C(c2cnc3[nH]cc(-c4csc(C(=O)N5CCOCC5)n4)c3c2)CC1` (centres unmarked) [Compound I-27, {4-[5-(4-Ethyl-cyclohex-1-enyl)-1H-pyrrolo[2,3-b]pyridin-3-yl]-thiazol-2-yl}-morpholin-4-yl-methanone] was run?
A: 6.35

Q: How did the pIC50 turn out when `CC1(C)C=CC(c2cnc3[nH]cc(-c4csc(C(=O)N5CCOCC5)n4)c3c2)=CC1` [Compound I-16, {4-[5-(4,4-Dimethyl-cyclohexa-1,5-dienyl)-1H-pyrrolo[2,3-b]pyridin-3-yl]-thiazol-2-yl}-morpholin-4-yl-methanone] was run?
A: 6.40

Q: How did the pIC50 turn out when `CN1CCN(C(=O)c2nc(-c3c[nH]c4ncc(C5=CCCC5)cc34)cs2)CC1` [Compound I-5, [4-(5-Cyclopent-1-enyl-1H-pyrrolo[2,3-b]pyridin-3-yl)-thiazol-2-yl]-(4-methyl-piperazin-1-yl)-methanone] was run?
A: 7.07

Q: How did the pIC50 turn out when `Cc1csc(-c2c[nH]c3ncc([C@H]4CC[C@H](N5CCCOCC5)CC4)cc23)n1` [Compound I-117, 4-((1r,4r)-4-(3-(4-methylthiazol-2-yl)-1H-pyrrolo[2,3-b]pyridin-5-yl)cyclohexyl)-1,4-oxazepane] was run?
A: 6.08

Q: With `c1csc(-c2c[nH]c3ncc(C4CCCCC4)cc23)n1` [Compound I-26, 2-(5-cyclohexyl-1H-pyrrolo[2,3-b]pyridin-3-yl)thiazole] as the compound, how does the pIC50 read?
A: 6.49

Q: `CN(C)C(=O)c1nc(-c2c[nH]c3ncc(C4CCCCC4)cc23)cs1` [Compound I-9, 4-[5-cyclohexyl-1H-pyrrolo[2,3-b]pyridin-3-yl]-thiazole-2-carboxylic acid dimethylamide] was tested. Which pIC50 did it give?
A: 6.83

Q: With `CN1CCN(C(=O)c2nc(-c3c[nH]c4ncc(C5CCCCC5)cc34)cs2)CC1` [Compound I-10, [4-(5-Cyclohexyl-1H-pyrrolo[2,3-b]pyridin-3-yl)-thiazol-2-yl]-(4-methyl-piperazin-1-yl)-methanone] as the compound, how does the pIC50 read?
A: 7.20

Q: How did the pIC50 turn out when `CC1CC=C(c2cnc3[nH]cc(-c4csc(C(=O)N5CCOCC5)n4)c3c2)CC1` (centres unmarked) [Compound I-13, {4-[5-(4-Methyl-cyclohex-1-enyl)-1H-pyrrolo[2,3-b]pyridin-3-yl]-thiazol-2-yl}-morpholin-4-yl-methanone] was run?
A: 6.82

Q: `CN1CCCC1c1nc(-c2c[nH]c3ncc([C@H]4CC[C@H](N5CCOCC5)CC4)cc23)cs1` (some centres unmarked) [Compound I-107, 4-((1r,4r)-4-(3-(2-(1-methylpyrrolidin-2-yl)thiazol-4-yl)-1H-pyrrolo[2,3-b]pyridin-5-yl)cyclohexyl)morpholine] was tested. Which pIC50 did it give?
A: 5.90

Q: `c1nc(-c2c[nH]c3ncc([C@H]4CC[C@H](N5CCCOCC5)CC4)cc23)cs1` [Compound I-116, 4-((1r,4r)-4-(3-(thiazol-4-yl)-1H-pyrrolo[2,3-b]pyridin-5-yl)cyclohexyl)-1,4-oxazepane] was tested. Which pIC50 did it give?
A: < 5.70

Q: How did the pIC50 turn out when `O=C(c1nc(-c2c[nH]c3ncc(C4CCCCC4)cc23)cs1)N1CCOCC1` [Compound I-8, [4-(5-Cyclohexyl-1H-pyrrolo[2,3-b]pyridin-3-yl)-thiazol-2-yl]-morpholin-4-yl-methanone] was run?
A: 6.95

Q: With `c1csc(-c2c[nH]c3ncc([C@H]4CC[C@H](N5CCCOCC5)CC4)cc23)n1` [Compound I-119, 4-((1r,4r)-4-(3-(thiazol-2-yl)-1H-pyrrolo[2,3-b]pyridin-5-yl)cyclohexyl)-1,4-oxazepane] as the compound, how does the pIC50 read?
A: 5.98

Q: How did the pIC50 turn out when `CN1CCC(c2nc(-c3c[nH]c4ncc(C5CCC6(CC5)OCCO6)cc34)cs2)CC1` [Compound I-23, 5-(1,4-Dioxa-spiro[4.5]dec-8-yl)-3-[2-(1-methyl-piperidin-4-yl)-thiazol-4-yl]-1H-pyrrolo[2,3-b]pyridine] was run?
A: 6.14
